In the kinase profiling compilation of Christmann-Franck et al. (2016):

How the values were obtained:
Test in all cases: KINOMEscan competition binding
Conditions in all cases: compound 10.0 µM
[1] = biological target: ABL2 (human) (UniProt P42684)
[2] = biological target: ADCK4 (human) (UniProt Q96D53)
[3] = biological target: BMPR1A (human) (UniProt P36894)
[4] = biological target: CDC42BPB (human) (UniProt Q9Y5S2)
[5] = biological target: CDK11B (human) (UniProt P21127)
[6] = biological target: CDK16 (human) (UniProt Q00536)
[7] = biological target: CDK17 (human) (UniProt Q00537)
[8] = biological target: CDK7 (human) (UniProt P50613)
[9] = biological target: CDK9 (human) (UniProt P50750)
[10] = biological target: CLK4 (human) (UniProt Q9HAZ1)
[11] = tested on: CPK1 (P.falciparum)
[12] = biological target: CSK (human) (UniProt P41240)
[13] = biological target: DMPK (human) (UniProt Q09013)
[14] = biological target: EIF2AK1 (human) (UniProt Q9BQI3)
[15] = biological target: EPHA7 (human) (UniProt Q15375)
[16] = biological target: ERBB2 (human) (UniProt P04626)
[17] = biological target: ERN1 (human) (UniProt O75460)
[18] = biological target: FER (human) (UniProt P16591)
[19] = biological target: HIPK1 (human) (UniProt Q86Z02)
[20] = biological target: IKBKE (human) (UniProt Q14164)
[21] = tested on: KIT (human), P10721 [L576P]
[22] = biological target: LRRK2 (human) (UniProt Q5S007)
[23] = biological target: MKNK1 (human) (UniProt Q9BUB5)
[24] = biological target: MYO3A (human) (UniProt Q8NEV4)
[25] = biological target: NTRK1 (human) (UniProt P04629)
[26] = biological target: PRKAA1 (human) (UniProt Q13131)
[27] = biological target: PRKCD (human) (UniProt Q05655)
[28] = biological target: RPS6KA5 KD1 (human) (UniProt O75582)
[29] = biological target: RPS6KA5 KD2 (human) (UniProt O75582)
[30] = biological target: SIK2 (human) (UniProt Q9H0K1)
[31] = biological target: SRPK1 (human) (UniProt Q96SB4)
[32] = biological target: STK10 (human) (UniProt O94804)
[33] = biological target: STK17B (human) (UniProt O94768)
[34] = biological target: STK39 (human) (UniProt Q9UEW8)
[35] = biological target: YSK4 (human) (UniProt Q56UN5)
[36] = biological target: LCK (human) (UniProt P06239)
[37] = biological target: PIK3CD (human) (UniProt O00329)
[38] = biological target: PIK3CG (human) (UniProt P48736)

Sequence of BMPR1A (human) (P36894 whole entry, looked up): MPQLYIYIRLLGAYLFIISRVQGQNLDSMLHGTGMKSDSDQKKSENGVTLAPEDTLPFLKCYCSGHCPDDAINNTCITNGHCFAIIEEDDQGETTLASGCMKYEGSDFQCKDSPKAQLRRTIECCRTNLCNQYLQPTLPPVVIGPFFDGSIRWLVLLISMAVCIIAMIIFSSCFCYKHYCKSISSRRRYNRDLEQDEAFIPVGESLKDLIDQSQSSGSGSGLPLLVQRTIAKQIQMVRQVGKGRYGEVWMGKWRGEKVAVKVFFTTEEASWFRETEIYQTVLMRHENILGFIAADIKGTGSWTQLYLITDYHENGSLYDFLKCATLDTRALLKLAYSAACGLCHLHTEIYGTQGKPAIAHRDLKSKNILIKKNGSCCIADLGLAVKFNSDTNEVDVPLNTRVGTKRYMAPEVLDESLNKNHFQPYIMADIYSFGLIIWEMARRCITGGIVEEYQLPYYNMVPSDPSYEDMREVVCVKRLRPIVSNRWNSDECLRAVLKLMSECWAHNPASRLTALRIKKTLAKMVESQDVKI
Sequence of PRKAA1 (human) (Q13131 whole entry, looked up): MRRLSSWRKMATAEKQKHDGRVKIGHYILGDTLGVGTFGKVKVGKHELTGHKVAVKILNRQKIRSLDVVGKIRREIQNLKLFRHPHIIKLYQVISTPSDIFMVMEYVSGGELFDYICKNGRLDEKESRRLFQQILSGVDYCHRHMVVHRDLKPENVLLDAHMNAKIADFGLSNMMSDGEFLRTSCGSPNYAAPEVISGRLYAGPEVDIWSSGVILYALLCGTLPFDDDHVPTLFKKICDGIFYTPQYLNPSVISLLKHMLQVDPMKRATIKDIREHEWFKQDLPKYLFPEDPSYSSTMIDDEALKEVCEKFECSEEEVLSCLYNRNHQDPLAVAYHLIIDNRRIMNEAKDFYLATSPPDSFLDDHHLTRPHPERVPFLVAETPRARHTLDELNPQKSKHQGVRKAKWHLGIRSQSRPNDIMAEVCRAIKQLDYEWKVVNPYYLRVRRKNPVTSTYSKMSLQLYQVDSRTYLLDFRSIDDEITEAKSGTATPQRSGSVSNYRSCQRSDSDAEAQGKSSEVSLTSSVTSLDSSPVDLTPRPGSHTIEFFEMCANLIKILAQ
Sequence of FER (human) (P16591 whole entry, looked up): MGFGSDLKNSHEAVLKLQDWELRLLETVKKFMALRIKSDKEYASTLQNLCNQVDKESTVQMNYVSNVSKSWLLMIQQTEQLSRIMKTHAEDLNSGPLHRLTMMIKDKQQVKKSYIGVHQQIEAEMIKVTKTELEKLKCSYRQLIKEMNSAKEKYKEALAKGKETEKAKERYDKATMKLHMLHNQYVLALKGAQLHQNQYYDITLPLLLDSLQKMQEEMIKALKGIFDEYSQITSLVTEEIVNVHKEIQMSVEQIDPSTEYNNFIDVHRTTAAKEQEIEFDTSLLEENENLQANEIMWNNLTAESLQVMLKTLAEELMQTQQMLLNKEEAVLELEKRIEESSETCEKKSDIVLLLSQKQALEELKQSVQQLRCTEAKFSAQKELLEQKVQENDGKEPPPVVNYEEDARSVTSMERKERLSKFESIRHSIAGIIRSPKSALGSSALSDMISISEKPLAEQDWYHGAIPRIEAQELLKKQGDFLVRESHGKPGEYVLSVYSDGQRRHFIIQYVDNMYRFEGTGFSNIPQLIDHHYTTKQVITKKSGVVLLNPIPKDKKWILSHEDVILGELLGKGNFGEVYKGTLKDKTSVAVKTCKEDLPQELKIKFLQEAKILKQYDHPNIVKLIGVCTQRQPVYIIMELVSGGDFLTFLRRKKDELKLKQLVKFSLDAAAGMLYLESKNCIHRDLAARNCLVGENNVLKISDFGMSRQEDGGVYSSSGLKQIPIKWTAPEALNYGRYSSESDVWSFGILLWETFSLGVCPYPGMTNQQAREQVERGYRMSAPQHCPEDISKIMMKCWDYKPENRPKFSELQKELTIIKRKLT
Sequence of CDK9 (human) (P50750 whole entry, looked up): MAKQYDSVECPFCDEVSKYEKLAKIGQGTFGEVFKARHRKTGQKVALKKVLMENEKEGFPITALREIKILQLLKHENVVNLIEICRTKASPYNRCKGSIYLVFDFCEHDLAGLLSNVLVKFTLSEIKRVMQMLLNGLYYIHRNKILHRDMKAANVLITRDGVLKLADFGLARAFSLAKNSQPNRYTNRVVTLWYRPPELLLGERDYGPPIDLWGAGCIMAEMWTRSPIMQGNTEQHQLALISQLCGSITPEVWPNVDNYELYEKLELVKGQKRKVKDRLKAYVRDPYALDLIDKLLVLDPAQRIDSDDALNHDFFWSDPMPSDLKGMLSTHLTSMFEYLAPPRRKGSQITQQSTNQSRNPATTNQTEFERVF
Sequence of STK10 (human) (O94804 whole entry, looked up): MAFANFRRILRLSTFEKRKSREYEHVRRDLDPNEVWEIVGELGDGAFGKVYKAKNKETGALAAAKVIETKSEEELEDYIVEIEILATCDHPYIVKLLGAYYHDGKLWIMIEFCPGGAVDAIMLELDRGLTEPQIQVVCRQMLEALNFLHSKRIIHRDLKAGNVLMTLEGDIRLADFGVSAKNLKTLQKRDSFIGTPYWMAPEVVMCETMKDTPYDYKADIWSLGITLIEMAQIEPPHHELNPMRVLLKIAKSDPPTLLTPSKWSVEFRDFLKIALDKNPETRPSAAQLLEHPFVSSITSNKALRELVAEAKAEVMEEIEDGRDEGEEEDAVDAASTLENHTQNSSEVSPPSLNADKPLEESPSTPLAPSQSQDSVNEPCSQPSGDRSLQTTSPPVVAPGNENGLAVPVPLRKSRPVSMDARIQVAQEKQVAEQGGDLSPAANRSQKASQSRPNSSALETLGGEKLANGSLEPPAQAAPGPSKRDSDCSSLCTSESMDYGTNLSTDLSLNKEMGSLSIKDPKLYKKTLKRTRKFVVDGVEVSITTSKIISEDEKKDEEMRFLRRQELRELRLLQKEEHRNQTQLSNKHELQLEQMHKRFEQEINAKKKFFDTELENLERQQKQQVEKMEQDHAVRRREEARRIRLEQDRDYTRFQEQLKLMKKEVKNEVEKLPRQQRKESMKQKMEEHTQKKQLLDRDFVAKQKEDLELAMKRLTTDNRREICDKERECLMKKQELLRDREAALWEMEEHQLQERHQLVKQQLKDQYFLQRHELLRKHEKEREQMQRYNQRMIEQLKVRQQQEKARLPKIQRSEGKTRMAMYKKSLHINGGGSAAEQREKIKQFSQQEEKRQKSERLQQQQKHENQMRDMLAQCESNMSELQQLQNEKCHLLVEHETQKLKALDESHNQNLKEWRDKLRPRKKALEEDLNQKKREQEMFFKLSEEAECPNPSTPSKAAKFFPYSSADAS
Sequence of SIK2 (human) (Q9H0K1 whole entry, looked up): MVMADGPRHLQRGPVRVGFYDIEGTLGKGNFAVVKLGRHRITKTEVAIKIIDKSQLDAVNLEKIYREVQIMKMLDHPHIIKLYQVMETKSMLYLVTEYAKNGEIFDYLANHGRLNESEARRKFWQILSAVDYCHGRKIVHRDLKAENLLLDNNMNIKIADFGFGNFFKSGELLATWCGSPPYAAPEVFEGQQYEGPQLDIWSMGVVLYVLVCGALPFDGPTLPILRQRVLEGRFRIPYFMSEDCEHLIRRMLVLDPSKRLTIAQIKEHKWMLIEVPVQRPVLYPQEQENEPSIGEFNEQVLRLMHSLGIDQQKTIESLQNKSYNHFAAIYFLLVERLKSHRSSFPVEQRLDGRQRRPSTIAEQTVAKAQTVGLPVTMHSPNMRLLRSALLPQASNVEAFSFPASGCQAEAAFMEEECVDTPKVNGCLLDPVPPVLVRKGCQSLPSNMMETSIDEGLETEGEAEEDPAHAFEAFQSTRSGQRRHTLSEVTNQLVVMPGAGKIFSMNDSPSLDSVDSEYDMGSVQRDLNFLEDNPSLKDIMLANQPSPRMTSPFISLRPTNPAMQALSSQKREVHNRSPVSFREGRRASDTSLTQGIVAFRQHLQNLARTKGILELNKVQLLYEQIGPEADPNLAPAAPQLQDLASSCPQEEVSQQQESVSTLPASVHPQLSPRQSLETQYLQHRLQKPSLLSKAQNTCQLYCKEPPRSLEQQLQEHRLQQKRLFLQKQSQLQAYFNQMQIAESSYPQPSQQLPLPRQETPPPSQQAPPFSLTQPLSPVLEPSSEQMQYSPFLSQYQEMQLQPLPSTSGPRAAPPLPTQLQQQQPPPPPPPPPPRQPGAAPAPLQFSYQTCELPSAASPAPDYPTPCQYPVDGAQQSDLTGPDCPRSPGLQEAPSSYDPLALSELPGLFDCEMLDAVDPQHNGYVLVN
Sequence of ADCK4 (human) (Q96D53 whole entry, looked up): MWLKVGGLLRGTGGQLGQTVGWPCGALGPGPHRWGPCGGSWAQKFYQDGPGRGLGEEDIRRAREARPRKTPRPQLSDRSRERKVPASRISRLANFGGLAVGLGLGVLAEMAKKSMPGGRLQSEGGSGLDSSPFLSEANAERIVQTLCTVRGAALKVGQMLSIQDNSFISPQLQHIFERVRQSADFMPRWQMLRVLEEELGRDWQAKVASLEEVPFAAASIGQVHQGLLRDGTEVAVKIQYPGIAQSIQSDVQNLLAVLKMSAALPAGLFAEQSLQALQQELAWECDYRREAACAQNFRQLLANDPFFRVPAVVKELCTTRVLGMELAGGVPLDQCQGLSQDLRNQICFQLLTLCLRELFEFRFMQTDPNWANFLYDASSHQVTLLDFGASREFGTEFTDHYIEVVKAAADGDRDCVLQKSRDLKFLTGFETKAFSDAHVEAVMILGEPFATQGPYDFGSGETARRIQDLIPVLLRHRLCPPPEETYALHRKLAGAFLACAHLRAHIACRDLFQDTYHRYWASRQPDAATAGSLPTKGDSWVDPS

Row | Compound | kinase still bound, per cent of control [1] | kinase still bound, per cent of control [2] | kinase still bound, per cent of control [3] | kinase still bound, per cent of control [4] | kinase still bound, per cent of control [5] | kinase still bound, per cent of control [6] | kinase still bound, per cent of control [7] | kinase still bound, per cent of control [8] | kinase still bound, per cent of control [9] | kinase still bound, per cent of control [10] | kinase still bound, per cent of control [11] | kinase still bound, per cent of control [12] | kinase still bound, per cent of control [14] | kinase still bound, per cent of control [15] | kinase still bound, per cent of control [16] | kinase still bound, per cent of control [17] | kinase still bound, per cent of control [18] | kinase still bound, per cent of control [19] | kinase still bound, per cent of control [20] | kinase still bound, per cent of control [21] | other results
1 | CNC(=O)c1cc(Oc2ccc(NC(=O)Nc3ccc(Cl)c(C(F)(F)F)c3)cc2)ccn1 | 35% | 100% | 100% | 100% | 98% | 72% | 17% | 4.2% | 81% | 52% | 0.95% | 70% | 57% | 25% | 100% | 74% | 87% | 13% | 100% | 0% | kinase still bound, per cent of control [13]: 100%; kinase still bound, per cent of control [22]: 77%; kinase still bound, per cent of control [23]: 2.1%; kinase still bound, per cent of control [24]: 67%; kinase still bound, per cent of control [25]: 16%; kinase still bound, per cent of control [26]: 42%; kinase still bound, per cent of control [27]: 100%; kinase still bound, per cent of control [28]: 100%; kinase still bound, per cent of control [29]: 100%; kinase still bound, per cent of control [30]: 97%; kinase still bound, per cent of control [31]: 80%; kinase still bound, per cent of control [32]: 0%; kinase still bound, per cent of control [33]: 59%; kinase still bound, per cent of control [34]: 100%; kinase still bound, per cent of control [35]: 0.4%
2 | COCC(=O)NC/C=C/c1ccc2ncnc(Nc3ccc(Oc4ccc(C)nc4)c(C)c3)c2c1 | 100% | 98% | 17% | 96% | 100% | 74% | 100% | 100% | 100% | 100% | 25% | 59% | 100% | 100% | 0% | 82% | 100% | 88% | 100% | 54% | kinase still bound, per cent of control [36]: 59%; kinase still bound, per cent of control [22]: 100%; kinase still bound, per cent of control [23]: 100%; kinase still bound, per cent of control [24]: 75%; kinase still bound, per cent of control [25]: 89%; kinase still bound, per cent of control [37]: 100%; kinase still bound, per cent of control [38]: 100%; kinase still bound, per cent of control [26]: 89%; kinase still bound, per cent of control [27]: 87%; kinase still bound, per cent of control [28]: 99%; kinase still bound, per cent of control [29]: 98%; kinase still bound, per cent of control [30]: 84%; kinase still bound, per cent of control [31]: 100%; kinase still bound, per cent of control [32]: 4.2%; kinase still bound, per cent of control [33]: 100%; kinase still bound, per cent of control [34]: 100%; kinase still bound, per cent of control [35]: 100%
